Literature values as cited in US12357614B2, “L-ergothioneine-containing composition” (NAGASE & CO., LTD., priority 2020, dated 2025).

Key:
Escherichia coli = details: EGT at 5 mM and 50 mM
[1] = test system: mouse bone marrow-derived macrophages; details: 10 mM EGT, toll-like receptor ligand stimulation
OT-II CD4^+ T cells = details: 30 mM EGT, co-culture with F4/80 macrophages

Structure (SMILES): C[N+](C)(C)[C@@H](Cc1c[nH]c(=S)[nH]1)C(=O)[O-] [EGT, N,N,N-trimethyl-L-2-thiohistidine]
- growth of Escherichia coli (Escherichia coli): suppresses the growth of Escherichia coli
- production of cytokines (IL-6, IL-12p40, IL-1β, IL-10) [1]: promoted
- Th17 polarization of OT-II CD4^+ T cells (OT-II CD4^+ T cells): promoted
